Values of other authors in US20100241197A1, “METHODS OF USING NITROXIDES IN CONJUNCTION WITH PHOTOSENSITIZERS AND SONOSENSITIZERS” (Mitos Pharmaceuticals, Inc., priority 2003, published 2010).
Like-named read-outs stand apart in the source and are kept apart here.

What was measured:
[1] = relative to PHOTOFRIN
[2] = not given; remark: listed apart in the source
tumor = conditions: in vivo

**Q.** Which “skin photosensitivity compared with PHOTOFRIN” value [1] does the source give for Oc1cccc(-c2c3nc(c(-c4cccc(O)c4)c4ccc([nH]4)c(-c4cccc(O)c4)c4nc(c(-c5cccc(O)c5)c5ccc2[nH]5)CC4)C=C3)c1 [m-THPC, Meta-tetra hydroxyphenyl chlorin] here?
**A.** only slightly less

**Q.** Which extinction coefficient (absorbance peak at 654 nm) does the source give for C=Cc1c(C)c2cc3nc(c(CC(=O)N[C@@H](CC(=O)[O-])C(=O)[O-])c4[nH]c(cc5nc(cc1[nH]2)C(C)=C5CC)c(C)c4C(=O)[O-])[C@@H](CCC(=O)[O-])[C@@H]3C.[Na+].[Na+].[Na+].[Na+] [Npe6, Mono-L-aspartyl chlorin e6] here?
**A.** 40 000 M-1 cm-1

**Q.** And the “solubility in water / aqueous solutions” value [2]?
**A.** highly water soluble

**Q.** For “benzoporphyrin derivative mono-acid A [BPD]”, which extinction coefficient (absorbance peak at 650 nm) is on record?
**A.** 34 000 M-1 cm-1

**Q.** And the tumor accumulation (tumor)?
**A.** rapid tumor accumulation

**Q.** For CCOC(=O)C1=Cc2c3nc(cc4nc(cc5[n-]c(cc6[n-]c2c(C)c6CC)c(C)c5CC)C(C)=C4CC)[C@@H](C)[C@]13CC.[Cl-].[Cl-].[Sn] (racemic) [SnET2, tin etiopurpurin], which extinction coefficient (at 700 nm) is on record?
**A.** 40 000 M-1 cm-1
